Experiment [1] concerns neutrophils, macrophages and inflammatory monocytes in the blood. The experiment is described as follows: Flow cytometry of myeloid cells in peripheral blood of STA mice. In kind it is in vivo, C57BL/6 mice. Particulars: EFL2 40 mg/kg i.p. Here is the method: K/BxN serum was collected from K/BxN mice at 8 weeks of age, pooled, aliquoted and stored at -20 °C. K/BxN serum-transfer arthritis (STA) model was induced by intraperitoneal (i.p.) application of 150 μL of serum at day 0. Clinical score for arthritis severity was assessed using a 0–4 point scale for each paw at various time points (0–16 total score) as described previously ([Luo et al., 2011]). 8-week old male C57BL/6 mice were purchased from Dashuo Animal Center (China, Chengdu), maintained at 25°C, and exposed to 12-h light and dark cycles. Mice were fed with standard laboratory chow and water with 1 week of acclimatization. Naive mice were used as the control group. […]
150 μL peripheral blood and the hind ankles were collected on day 5 and 13 post KBx/N serum transfer, respectively. […] Data were acquired using a BD FACSCalibur flow cytometer (BD Biosciences) and were analyzed by using FlowJo software (Version 7.6.1).
Background: A flow cytometer gives signals particle by particle.

For experiment [2], the system named is IL-1β and IL-6 in the ankle. Kind of experiment: Immunochemistry staining for IL-1β and IL-6 in ankles. In kind it is in vivo, C57BL/6 mice. Particulars: STA mice; EFL2 15 or 40 mg/kg. Here is the method: The dissected left ankles were fixed in 4% formaldehyde overnight. Embedding, de-paraffinization, and re-hydration of the ankle sections were the same as described for H&E staining. After treated with 3% […] for 10 min, the tissue sections were immersed in a 10 mM sodium citrate buffer (pH 6.0) for 15 min at 95°C, and washed with PBS. The sections were then blocked with 5% goat serum in PBS, and incubated with primary antibodies overnight at 4°C. Primary antibodies were as follows: rabbit anti-mouse IL-1β (1:600, Abcam, China); rabbit anti-mouse IL-6 (1:50, Abcam, China). The signal was visualized using an Envision System (DAKO, United States). The images were then acquired by microscopy (Leica DMil).

Experiment [3] deals with TLR7-mediated IRAK4/IKKβ/IRF5 signaling pathway. Kind of experiment: Western blot, IRAK4/IKKβ/IRF5 in R837-stimulated RAW264.7 cells. In kind it is cell-based, mouse. Particulars: R837-stimulated RAW264.7. Here is the method:
RAW264.7 cells (2×10^6 cells/well) were plated into 6-well plates and then incubated at 37°C in 5% CO2 for 24 h. After incubated with various concentrations of EFL2 (1, 5 and 10 µM) for 1 h, cells were then stimulated by R837 (20 μg/ml) for 30 min. Cell lysates were prepared by direct lysis in 20 µL IP buffer (Beyotime Biotechnology, Shanghai, China). After obtaining the whole cell extracts, the cytosolic and nuclear were seperated using Nuclear and Cytoplasmic Protein Extraction Kit (Beyotime Biotechnology, Shanghai, China). BCA Protein Assay Kit (Beyotime Biotechnology, Nantong, China) was applied to determine the protein concentrations. The bands corresponding to p- IKKα/β, IKKα/β, p-IκBα, IκBα, p-p65, p65, p-IRAK4, IRAK4, p-IKKβ, IKKβ, p-IRF5, IRF5, β-actin and Lamin B were visualized using a Western Blot Detection Chemiluminescence Kit (Merck). Protein extracted from the total lysates/cytoplasm and nucleus was quantified in relation to β-actin and Lamin B bands, respectively.
The antibodies used in the experiments were as follows: rabbit anti-mouse IKKα/β polyclonal antibody (1:1,000, Abways, China), rabbit anti-mouse IκBα polyclonal antibody (1:1,000, Abgent, China), rabbit anti-mouse p65 polyclonal antibody (1:1,000, Abgent, China), rabbit anti-mouse phosphorylated IKKα (Ser176)/β (Ser177) (1:1,000, Abways, China), rabbit anti-mouse phosphorylated IκBα (1:1,000, Abcam, United States), rabbit anti-mouse phosphorylated p65 (1:1,000, Abcam, United States), rabbit anti-mouse IRAK4 polyclonal antibody (1:1,000, Proteintech, United States), rabbit anti-mouse phosphorylated IRAK4 (Thr345/Ser346) (1:1,000, Affinity, United States), rabbit anti-mouse IKKβ polyclonal antibody (1:1,000, Abbkine, United States), rabbit anti-mouse phosphorylated IKKβ (Ser177) (1:1,000, Abways, China), rabbit anti-mouse IRF5 polyclonal antibody (1:1,000, Immunoway, United States), rabbit anti-mouse phosphorylated IRF5 (Ser437) (1:1,000, Affinity, United States), anti-mouse actin monoclonal antibody (1:20,000, Transgen, China) and rabbit anti-mouse LaminB monoclonal antibody (1:5,000, Abways, China).
(In general: Immunoblotting shows a protein as a band on a membrane.)

The test system of experiment [4] is lung cancer cell line A549. Details: method as in Lin et al., 2017. The settings on record: in vitro, dose-dependent; ref Lin et al., 2017; cited from earlier work.

With `C=C1C(OC(=O)c2ccccc2)CC2C(C=C(C)C(=O)C3(OC(C)=O)CC(C)C(OC(=O)c4ccccc4)C3C1OC(C)=O)C2(C)C` (stereo not shown) [EFL2, Euphorbia factor L2], the “expansions of three myeloid cells subsets in the blood” value in experiment [1] is “more robust suppressive effect”. Moreover, in experiment [2], the “IL-1β and IL-6 production in local inflamed joints (immunohistochemical staining)” value was “could inhibit”. Besides, in experiment [3] (EFL2 at 5 and 10 μM, also immunofluorescence), the “IRF5 translocation (cytoplasm to nucleus)” value is listed as “effectively blocked”. Also, in experiment [3] (EFL2 pretreatment 1, 5, 10 μM), the “phosphorylation of IKKβ” value is given as “significantly suppressed”, the “phosphorylation of IRAK4” value is listed as “significantly suppressed” and the “phosphorylation of IRF5” value is on record as “significantly suppressed”. The “apoptosis of A549 cells” value in experiment [4] is given as “induced the apoptosis”.

These data come from publication PMC8691750, “Euphorbia Factor L2 ameliorates the Progression of K/BxN Serum-Induced Arthritis by Blocking TLR7 Mediated IRAK4/IKKβ/IRF5 and NF-kB Signaling Pathways” (Frontiers in Pharmacology, 2021).
